From ChEMBL document CHEMBL3885881, “DrugMatrix”

Species: Rattus norvegicus
Experiment: DrugMatrix - Regimen: Daily Repeat
Format: toxicity, organism-based, Sprague-Dawley
Set-up: regimen Daily Repeat, gender Male, age 6-8 weeks
Conditions: in vivo, po, route oral GAVAGE, vehicle 100 % WATER; for ABSOLUTE BASOPHIL / ABSOLUTE EOSINOPHIL / ABSOLUTE LYMPHOCYTE / ABSOLUTE MONOCYTE / ABSOLUTE SEGMENTED NEUTROPHIL / BASOPHIL / EOSINOPHIL / ERYTHROCYTE COUNT / HEMATOCRIT / HEMOGLOBIN / LEUKOCYTE COUNT / LYMPHOCYTE / MEAN CORPUSCULAR HEMOGLOBIN / MEAN CORPUSCULAR HEMOGLOBIN CONCENTRATION / MEAN CORPUSCULAR VOLUME / MONOCYTE / NEUTROPHIL / NUCLEATED RED BLOOD CELLS / PLATELET COUNT: tissue Blood; for ALANINE AMINOTRANSFERASE / ALBUMIN / ALKALINE PHOSPHATASE / ASPARTATE AMINOTRANSFERASE / BLOOD UREA NITROGEN / CARBON DIOXIDE / CHLORIDE / CHOLESTEROL / CREATINE PHOSPHOKINASE / CREATININE / GLUCOSE / LACTATE DEHYDROGENASE / LIPASE / PHOSPHORUS / POTASSIUM / SODIUM / TOTAL BILIRUBIN / TOTAL PROTEIN / URIC ACID: tissue Plasma
[1] = 160 mg/kg, 120 h, dose level Low, time 5 day
[2] = 1000 mg/kg, 72 h, dose level High, time 3 day
[3] = 1000 mg/kg, 120 h, dose level High, time 5 day

`N[C@@H](Cc1ccc(O)c(O)c1)C(=O)O` [LEVODOPA] was tested, and the “ABSOLUTE BASOPHIL” value [1] was 0 CELLS/uL, the “ABSOLUTE EOSINOPHIL” value [1] was 0 CELLS/uL and the “ABSOLUTE LYMPHOCYTE” value [1] was 7319.33 CELLS/uL. For the same compound, the “ABSOLUTE MONOCYTE” value [1] was 56 CELLS/uL, the “ABSOLUTE SEGMENTED NEUTROPHIL” value [1] was 1058 CELLS/uL and the BASOPHIL [1] was 0%. For the same compound, the EOSINOPHIL [1] was 0%, the “ERYTHROCYTE COUNT” value [1] was 5.23 x10E6/uL and the HEMATOCRIT [1] was 34.27%. The HEMOGLOBIN [1] was 13 G/DL, the “LEUKOCYTE COUNT” value [1] was 8.43 x10E3/uL and the LYMPHOCYTE [1] was 87.67%. The “MEAN CORPUSCULAR HEMOGLOBIN” value [1] was 25.13 pg, the “MEAN CORPUSCULAR HEMOGLOBIN CONCENTRATION” value [1] was 38 G/DL and the “MEAN CORPUSCULAR VOLUME” value [1] was 66.13 fL. The MONOCYTE [1] was 0.67%, the NEUTROPHIL [1] was 11.67% and the “NUCLEATED RED BLOOD CELLS” value [1] was 0 /100WBC. The “PLATELET COUNT” value [1] was 1259.67 x10E3/uL, the “ALANINE AMINOTRANSFERASE” value [1] was 48 u/L and the ALBUMIN [1] was 4.1 G/DL. For the same compound, the “ALKALINE PHOSPHATASE” value [1] was 360.33 u/L, the “ASPARTATE AMINOTRANSFERASE” value [1] was 84.33 u/L and the “BLOOD UREA NITROGEN” value [1] was 16 mg/dL. The “CARBON DIOXIDE” value [1] was 30.33 mmol/L, the CHLORIDE [1] was 103 MEQ/L and the CHOLESTEROL [1] was 58 mg/dL. For the same compound, the “CREATINE PHOSPHOKINASE” value [1] was 286.33 u/L, the CREATININE [1] was 0.17 mg/dL and the GLUCOSE [1] was 137 mg/dL. The “LACTATE DEHYDROGENASE” value [1] was 128 u/L, the LIPASE [1] was 10 u/L and the PHOSPHORUS [1] was 10.63 mg/dL. For the same compound, the POTASSIUM [1] was 6.08 MEQ/L, the SODIUM [1] was 145.37 MEQ/L and the “TOTAL BILIRUBIN” value [1] was 0.17 mg/dL. For the same compound, the “TOTAL PROTEIN” value [1] was 5.97 G/DL, the “URIC ACID” value [1] was 1.03 mg/dL and the “ABSOLUTE BASOPHIL” value [2] was 0 CELLS/uL. For the same compound, the “ABSOLUTE EOSINOPHIL” value [2] was 0 CELLS/uL, the “ABSOLUTE LYMPHOCYTE” value [2] was 14031 CELLS/uL and the “ABSOLUTE MONOCYTE” value [2] was 188.67 CELLS/uL. The “ABSOLUTE SEGMENTED NEUTROPHIL” value [2] was 780.33 CELLS/uL, the BASOPHIL [2] was 0% and the EOSINOPHIL [2] was 0%. For the same compound, the “ERYTHROCYTE COUNT” value [2] was 5.75 x10E6/uL, the HEMATOCRIT [2] was 36.23% and the HEMOGLOBIN [2] was 13.9 G/DL. The “LEUKOCYTE COUNT” value [2] was 15 x10E3/uL, the LYMPHOCYTE [2] was 93.33% and the “MEAN CORPUSCULAR HEMOGLOBIN” value [2] was 24.2 pg. The “MEAN CORPUSCULAR HEMOGLOBIN CONCENTRATION” value [2] was 38.37 G/DL, the “MEAN CORPUSCULAR VOLUME” value [2] was 63 fL and the MONOCYTE [2] was 1%. For the same compound, the NEUTROPHIL [2] was 5.67%, the “NUCLEATED RED BLOOD CELLS” value [2] was 0.33 /100WBC and the “PLATELET COUNT” value [2] was 1320 x10E3/uL. For the same compound, the “ALANINE AMINOTRANSFERASE” value [2] was 57.33 u/L, the ALBUMIN [2] was 4.13 G/DL and the “ALKALINE PHOSPHATASE” value [2] was 415 u/L. For the same compound, the “ASPARTATE AMINOTRANSFERASE” value [2] was 88 u/L, the “BLOOD UREA NITROGEN” value [2] was 14 mg/dL and the “CARBON DIOXIDE” value [2] was 32 mmol/L. The CHLORIDE [2] was 101.67 MEQ/L, the CHOLESTEROL [2] was 54.33 mg/dL and the “CREATINE PHOSPHOKINASE” value [2] was 336.67 u/L. The CREATININE [2] was 0.2 mg/dL, the GLUCOSE [2] was 120 mg/dL and the “LACTATE DEHYDROGENASE” value [2] was 167.33 u/L. For the same compound, the LIPASE [2] was 10.33 u/L, the PHOSPHORUS [2] was 11 mg/dL and the POTASSIUM [2] was 6.09 MEQ/L. For the same compound, the SODIUM [2] was 145.53 MEQ/L, the “TOTAL BILIRUBIN” value [2] was 0.17 mg/dL and the “TOTAL PROTEIN” value [2] was 6.07 G/DL. For the same compound, the “URIC ACID” value [2] was 0.8 mg/dL, the “ABSOLUTE BASOPHIL” value [3] was 0 CELLS/uL and the “ABSOLUTE EOSINOPHIL” value [3] was 0 CELLS/uL. For the same compound, the “ABSOLUTE LYMPHOCYTE” value [3] was 11289.33 CELLS/uL, the “ABSOLUTE MONOCYTE” value [3] was 104.67 CELLS/uL and the “ABSOLUTE SEGMENTED NEUTROPHIL” value [3] was 539.33 CELLS/uL. The BASOPHIL [3] was 0%, the EOSINOPHIL [3] was 0% and the “ERYTHROCYTE COUNT” value [3] was 6.06 x10E6/uL. For the same compound, the HEMATOCRIT [3] was 37.27%, the HEMOGLOBIN [3] was 14.47 G/DL and the “LEUKOCYTE COUNT” value [3] was 11.93 x10E3/uL. For the same compound, the LYMPHOCYTE [3] was 95.33%, the “MEAN CORPUSCULAR HEMOGLOBIN” value [3] was 23.87 pg and the “MEAN CORPUSCULAR HEMOGLOBIN CONCENTRATION” value [3] was 38.83 G/DL. The “MEAN CORPUSCULAR VOLUME” value [3] was 61.43 fL, the MONOCYTE [3] was 0.67% and the NEUTROPHIL [3] was 4%. For the same compound, the “NUCLEATED RED BLOOD CELLS” value [3] was 0 /100WBC, the “PLATELET COUNT” value [3] was 1582 x10E3/uL and the “ALANINE AMINOTRANSFERASE” value [3] was 46.33 u/L. For the same compound, the ALBUMIN [3] was 4.17 G/DL, the “ALKALINE PHOSPHATASE” value [3] was 308.33 u/L and the “ASPARTATE AMINOTRANSFERASE” value [3] was 68 u/L. For the same compound, the “BLOOD UREA NITROGEN” value [3] was 20.33 mg/dL, the “CARBON DIOXIDE” value [3] was 33.67 mmol/L and the CHLORIDE [3] was 101.67 MEQ/L. For the same compound, the CHOLESTEROL [3] was 59.33 mg/dL, the “CREATINE PHOSPHOKINASE” value [3] was 271.67 u/L and the CREATININE [3] was 0.21 mg/dL. For the same compound, the GLUCOSE [3] was 124 mg/dL, the “LACTATE DEHYDROGENASE” value [3] was 116.67 u/L and the LIPASE [3] was 10 u/L. It also gave a PHOSPHORUS [3] of 10.37 mg/dL, a POTASSIUM [3] of 6.24 MEQ/L and an SODIUM [3] of 147.43 MEQ/L. The “TOTAL BILIRUBIN” value [3] was 0.17 mg/dL, the “TOTAL PROTEIN” value [3] was 6.13 G/DL and the “URIC ACID” value [3] was 1.2 mg/dL.
